In US11433014B2, “Polyol polyrhamnosides, process for the preparation thereof, and cosmetic and/or pharmaceutical composition comprising same” (SOCIETE D'EXPLOITATION DE PRODUITS POUR LES INDUSTRIES …, priority 2017, dated 2022):
“And” between values parts separate entries of the source, which are not always exact repeats. Equal values may be shown once.

Test system: Normal human fibroblasts
Assay: Production of hyaluronic acid on human fibroblast cultures
Type: cell-based
Conditions: EGF 10 ng/ml (positive reference), 72-hour incubation
Experimental: B)—Evaluation of the Moisturizing Effect of the Compositions According to the Invention—Measurement of the Production of Hyaluronic Acid on Human Fibroblast Cultures:
Normal human fibroblasts are seeded and cultured in 96-well plates in 10% FCS (fetal calf serum) culture medium, at 37° C. in a humid atmosphere containing 5% CO2. […] Each condition is performed in n=4. At the end of a 72-hour incubation, the amount of hyaluronic acid excreted into the culture supernatant is measured using a specific assay kit (Hyaluronan Duo Set Assay Development Kit—Biotechne); and the amount of protein present in the cell lawns is measured using the BC Assay kit (Interchim). The amount of hyaluronic acid assayed is then expressed relative to the amount of protein per well. Means and standard deviations are calculated per condition and the level of hyaluronic acid production is evaluated by comparing the test conditions with the control condition (untreated cells).

EGF: epidermal growth factor, the positive reference for the model
Amount of hyaluronic acid produced, Mean (culture supernatant, n=4): 32.29 ng/μg protein and 25.28 ng/μg protein
Amount of hyaluronic acid produced, Difference relative to the control (vs untreated cells): 164%
